Experimental data: PubChem BioAssay (NCI)
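48-hour exposure; five concentrations; linearly interpolated endpoints. Here, GI50 denotes the concentration required for 50% inhibition of growth. The concentration for full growth arrest is given as TGI.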

How the values were obtained:
Experiment in all cases: inhibition of tumour cell growth, NCI panel, 48 h
786-0 renal = tested on: 786-0 renal
A498 renal = tested on: A498 renal
ACHN renal = tested on: ACHN renal
BT-549 breast = tested on: BT-549 breast
CAKI-1 renal = tested on: CAKI-1 renal
CCRF-CEM leukemia = tested on: CCRF-CEM leukemia
COLO 205 colon = tested on: COLO 205 colon
DU-145 prostate = tested on: DU-145 prostate
EKVX NSCLC = tested on: EKVX NSCLC
HCC-2998 colon = tested on: HCC-2998 colon
HCT-15 colon = tested on: HCT-15 colon
HL-60(TB) leukemia = tested on: HL-60(TB) leukemia
HOP-92 NSCLC = tested on: HOP-92 NSCLC
IGROV1 ovarian = tested on: IGROV1 ovarian
K-562 leukemia = tested on: K-562 leukemia
KM12 colon = tested on: KM12 colon
M14 melanoma = tested on: M14 melanoma
MALME-3M melanoma = tested on: MALME-3M melanoma
MDA-MB-231 breast = tested on: MDA-MB-231 breast
MDA-MB-435 = tested on: MDA-MB-435
MDA-MB-468 breast = tested on: MDA-MB-468 breast
MOLT-4 leukemia = tested on: MOLT-4 leukemia
NCI-H226 lung = tested on: NCI-H226 lung
NCI-H23 lung = tested on: NCI-H23 lung
NCI-H522 lung = tested on: NCI-H522 lung
OVCAR-3 ovarian = tested on: OVCAR-3 ovarian
OVCAR-4 ovarian = tested on: OVCAR-4 ovarian
OVCAR-5 ovarian = tested on: OVCAR-5 ovarian
PC-3 prostate = tested on: PC-3 prostate
RPMI-8226 leukemia = tested on: RPMI-8226 leukemia
SF-539 CNS = tested on: SF-539 CNS
SK-MEL-2 melanoma = tested on: SK-MEL-2 melanoma
SK-MEL-28 melanoma = tested on: SK-MEL-28 melanoma
SK-MEL-5 melanoma = tested on: SK-MEL-5 melanoma
SK-OV-3 ovarian = tested on: SK-OV-3 ovarian
SN12C renal = tested on: SN12C renal
SNB-19 CNS = tested on: SNB-19 CNS
SNB-75 CNS = tested on: SNB-75 CNS
SR leukemia = tested on: SR leukemia
TK-10 renal = tested on: TK-10 renal
UACC-257 melanoma = tested on: UACC-257 melanoma
UACC-62 melanoma = tested on: UACC-62 melanoma
UO-31 renal = tested on: UO-31 renal

**Q.** Which results are given for `N[C@@H](CSSC[C@H](N)C(=O)Nc1ccc(OCC2CCCC2)cc1)C(=O)Nc1ccc(OCC2CCCC2)cc1`?
**A.** GI50 (786-0 renal): 1640 nM; TGI (786-0 renal): 3100 nM; GI50 (A498 renal): 7150 nM; TGI (A498 renal): 20100 nM; GI50 (ACHN renal): 423 nM; TGI (ACHN renal): 1490 nM; GI50 (BT-549 breast): 1460 nM; TGI (BT-549 breast): 3030 nM; GI50 (CAKI-1 renal): 677 nM; TGI (CAKI-1 renal): 1900 nM; GI50 (CCRF-CEM leukemia): 170 nM; TGI (CCRF-CEM leukemia): 374 nM; GI50 (COLO 205 colon): 3230 nM; TGI (COLO 205 colon): 12000 nM; GI50 (DU-145 prostate): 339 nM; TGI (DU-145 prostate): 1150 nM; GI50 (EKVX NSCLC): 427 nM; TGI (EKVX NSCLC): 1540 nM; GI50 (HCC-2998 colon): 278 nM; TGI (HCC-2998 colon): 793 nM; GI50 (HCT-15 colon): 230 nM; TGI (HCT-15 colon): 604 nM; GI50 (HL-60(TB) leukemia): 228 nM; TGI (HL-60(TB) leukemia): 777 nM; GI50 (HOP-92 NSCLC): 1740 nM; TGI (HOP-92 NSCLC): 3430 nM; GI50 (IGROV1 ovarian): 292 nM; TGI (IGROV1 ovarian): 823 nM; GI50 (K-562 leukemia): 194 nM; TGI (K-562 leukemia): 434 nM; GI50 (KM12 colon): 182 nM; TGI (KM12 colon): 364 nM; GI50 (M14 melanoma): 178 nM; TGI (M14 melanoma): 344 nM; GI50 (MALME-3M melanoma): 6710 nM; TGI (MALME-3M melanoma): 19600 nM; GI50 (MDA-MB-231 breast): 202 nM; TGI (MDA-MB-231 breast): 422 nM; GI50 (MDA-MB-435): 163 nM; TGI (MDA-MB-435): 340 nM; GI50 (MDA-MB-468 breast): 539 nM; TGI (MDA-MB-468 breast): 1390 nM; GI50 (MOLT-4 leukemia): 223 nM; TGI (MOLT-4 leukemia): 501 nM; GI50 (NCI-H226 lung): 1720 nM; TGI (NCI-H226 lung): 3400 nM; GI50 (NCI-H23 lung): 408 nM; TGI (NCI-H23 lung): 1510 nM; GI50 (NCI-H522 lung): 1510 nM; TGI (NCI-H522 lung): 3030 nM; GI50 (OVCAR-3 ovarian): 765 nM; TGI (OVCAR-3 ovarian): 2090 nM; GI50 (OVCAR-4 ovarian): 389 nM; TGI (OVCAR-4 ovarian): 1650 nM; GI50 (OVCAR-5 ovarian): 1140 nM; TGI (OVCAR-5 ovarian): 2380 nM; GI50 (PC-3 prostate): 222 nM; TGI (PC-3 prostate): 530 nM; GI50 (RPMI-8226 leukemia): 738 nM; TGI (RPMI-8226 leukemia): 2430 nM; GI50 (SF-539 CNS): 461 nM; TGI (SF-539 CNS): 1520 nM; GI50 (SK-MEL-2 melanoma): 1700 nM; TGI (SK-MEL-2 melanoma): 3170 nM; GI50 (SK-MEL-28 melanoma): 1260 nM; TGI (SK-MEL-28 melanoma): 2550 nM; GI50 (SK-MEL-5 melanoma): 871 nM; TGI (SK-MEL-5 melanoma): 2130 nM; GI50 (SK-OV-3 ovarian): 570 nM; TGI (SK-OV-3 ovarian): 1730 nM; GI50 (SN12C renal): 460 nM; TGI (SN12C renal): 960 nM; GI50 (SNB-19 CNS): 545 nM; TGI (SNB-19 CNS): 1190 nM; GI50 (SNB-75 CNS): 192 nM; TGI (SNB-75 CNS): 450 nM; GI50 (SR leukemia): 214 nM; TGI (SR leukemia): 584 nM; GI50 (TK-10 renal): 1760 nM; TGI (TK-10 renal): 3230 nM; GI50 (UACC-257 melanoma): 1740 nM; TGI (UACC-257 melanoma): 3460 nM; GI50 (UACC-62 melanoma): 612 nM; TGI (UACC-62 melanoma): 1380 nM; GI50 (UO-31 renal): 716 nM; TGI (UO-31 renal): 2020 nM
